Results reported in paper PMC5645029 (Journal of medicinal chemistry, 2017).
Non-standard residues stand in square brackets, D forms with d. Residues, ends and D or L forms follow the SMILES beside them.

What was measured:
mMC4R [1] = target: T1, mMC4R (Mus musculus, UniProt P56450); details: for fold less potent at the MC4R compared to 1: antagonist potency relative to 1
mMC5R [2] = target: T2, mMC5R (Mus musculus, UniProt P41149); experiment: cell-based
mMC1R = mMC1R (Mus musculus, UniProt Q01727); experiment: AlphaScreen cAMP assay, agonist activity; details: up to 100 μM concentrations
mMC3R = mMC3R (Mus musculus, UniProt P33033); experiment: AlphaScreen cAMP assay, agonist activity; details: up to 100 μM concentrations
mMC4R [3] = target: T1, mMC4R; experiment: AlphaScreen cAMP assay, agonist activity; details: up to 100 μM concentrations
mMC5R [4] = target: T2, mMC5R

T1 sequence (P56450 whole entry): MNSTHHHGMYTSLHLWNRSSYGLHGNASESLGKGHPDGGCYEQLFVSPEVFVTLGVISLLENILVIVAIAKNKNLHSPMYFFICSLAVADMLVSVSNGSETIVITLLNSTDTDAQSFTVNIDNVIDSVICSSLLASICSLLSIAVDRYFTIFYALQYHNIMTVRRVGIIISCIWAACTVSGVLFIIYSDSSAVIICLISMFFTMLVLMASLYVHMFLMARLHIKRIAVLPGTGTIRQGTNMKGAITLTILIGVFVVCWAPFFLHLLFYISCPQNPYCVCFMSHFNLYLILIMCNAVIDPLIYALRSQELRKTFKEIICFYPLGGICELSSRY
T2 sequence (P41149 whole entry): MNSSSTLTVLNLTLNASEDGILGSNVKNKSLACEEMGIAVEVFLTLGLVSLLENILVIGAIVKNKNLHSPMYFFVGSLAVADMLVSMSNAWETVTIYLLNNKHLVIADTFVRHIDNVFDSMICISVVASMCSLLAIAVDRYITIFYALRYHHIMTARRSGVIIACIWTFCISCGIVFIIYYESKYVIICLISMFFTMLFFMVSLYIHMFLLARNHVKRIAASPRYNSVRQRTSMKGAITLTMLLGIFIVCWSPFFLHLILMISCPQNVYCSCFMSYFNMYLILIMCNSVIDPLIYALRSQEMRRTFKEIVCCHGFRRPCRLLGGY
Sequence of mMC3R (P33033 whole entry): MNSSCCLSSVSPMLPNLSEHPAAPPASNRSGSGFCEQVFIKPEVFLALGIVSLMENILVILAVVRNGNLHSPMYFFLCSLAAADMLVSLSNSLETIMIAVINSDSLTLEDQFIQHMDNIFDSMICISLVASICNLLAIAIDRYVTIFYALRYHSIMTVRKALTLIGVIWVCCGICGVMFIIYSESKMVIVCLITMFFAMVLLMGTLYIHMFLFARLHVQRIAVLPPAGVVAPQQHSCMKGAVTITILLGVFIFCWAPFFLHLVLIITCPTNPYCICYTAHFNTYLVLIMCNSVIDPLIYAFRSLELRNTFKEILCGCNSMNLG
Sequence of mMC1R (Q01727 whole entry): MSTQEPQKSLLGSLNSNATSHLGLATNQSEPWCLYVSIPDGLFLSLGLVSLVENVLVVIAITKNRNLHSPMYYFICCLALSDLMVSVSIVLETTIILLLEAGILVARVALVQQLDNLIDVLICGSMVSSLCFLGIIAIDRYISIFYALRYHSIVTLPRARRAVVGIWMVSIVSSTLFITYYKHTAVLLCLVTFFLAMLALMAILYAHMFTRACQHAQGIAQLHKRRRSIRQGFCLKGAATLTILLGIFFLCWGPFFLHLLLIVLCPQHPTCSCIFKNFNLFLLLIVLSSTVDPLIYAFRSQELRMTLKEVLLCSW

| SMILES | EC50 (mMC5R [2]) | fold less potent at the MC4R compared to 1 (mMC4R [1]) | activity at the MC5R (in words) (mMC5R [4]) | also measured |
| --- | --- | --- | --- | --- |
| C[C@@H]1NC(=O)[C@H]([C@@H](C)O)NC(=O)[C@H](Cc2ccccc2)NC(=O)[C@H](Cc2ccccc2)NC(=O)[C@H](CCCNC(=N)N)NC(=O)[C@@H]2CCCN2C(=O)[C@H]2CCCN2C(=O)[C@H](Cc2ccccc2)NC1=O [Peptide 6, c[Pro-Arg-Phe-Phe-Thr-Ala-Phe-DPro]] (cyclo(RFFTAF[dP]P)) | 50 nM | – | – | fold more potent at the MC4R compared to 13 (mMC4R [1]; antagonist potency relative to 13): 70 fold; agonist activity at the MC1R (in words) (mMC1R): No agonist activity; agonist activity at the MC3R (in words) (mMC3R): No agonist activity; agonist activity at the MC4R (in words) (mMC4R [3]): No agonist activity |
| C[C@@H]1NC(=O)[C@H](Cc2c[nH]cn2)NC(=O)[C@H](Cc2ccccc2)NC(=O)[C@H](Cc2ccccc2)NC(=O)[C@H](CCCNC(=N)N)NC(=O)[C@@H]2CCCN2C(=O)[C@H]2CCCN2C(=O)[C@H](Cc2ccccc2)NC1=O [Peptide 10, c[Pro-Arg-Phe-Phe-His-Ala-Phe-DPro]] | 10 nM | – | – | mMC5R inverse agonist, percent decrease from basal (mMC5R [4]): 10%; agonist activity at the MC1R (in words) (mMC1R): no agonist activity; agonist activity at the MC3R (in words) (mMC3R): no agonist activity; agonist activity at the MC4R (in words) (mMC4R [3]): no agonist activity |
| CCCC[C@@H]1NC(=O)[C@H](Cc2ccccc2)NC(=O)[C@H](Cc2ccccc2)NC(=O)[C@H](CCCNC(=N)N)NC(=O)[C@@H]2CCCN2C(=O)[C@H]2CCCN2C(=O)[C@H](Cc2ccccc2)NC(=O)[C@H](C)NC1=O [Peptide 11, c[Pro-Arg-Phe-Phe-Nle-Ala-Phe-DPro]] | – | at least 8 fold | no activity | – |
| CC(C)C[C@@H]1NC(=O)[C@H](Cc2ccccc2)NC(=O)[C@H](Cc2ccccc2)NC(=O)[C@H](CCCNC(=N)N)NC(=O)[C@@H]2CCCN2C(=O)[C@H]2CCCN2C(=O)[C@H](Cc2ccccc2)NC(=O)[C@H](C)NC1=O [Peptide 12, c[Pro-Arg-Phe-Phe-Leu-Ala-Phe-DPro]] (cyclo(RFFLAF[dP]P)) | 110 nM | at least 8 fold | – | – |
| CC(C)[C@@H]1NC(=O)[C@H](Cc2ccccc2)NC(=O)[C@H](Cc2ccccc2)NC(=O)[C@H](CCCNC(=N)N)NC(=O)[C@@H]2CCCN2C(=O)[C@H]2CCCN2C(=O)[C@H](Cc2ccccc2)NC(=O)[C@H](C)NC1=O [Peptide 13, c[Pro-Arg-Phe-Phe-Val-Ala-Phe-DPro]] | 510 nM | at least 8 fold | – | – |
| N=C(N)NCCC[C@@H]1NC(=O)[C@@H]2CCCN2C(=O)[C@H]2CCCN2C(=O)[C@H](Cc2ccccc2)NC(=O)[C@H](CCCCN)NC(=O)[C@H](CC(N)=O)NC(=O)[C@H](Cc2ccccc2)NC(=O)[C@H](Cc2ccccc2)NC1=O [Peptide 18, c[Pro-Arg-Phe-Phe-Asn-Lys-Phe-DPro]] | – | – | partially stimulated | – |
| N=C(N)NCCC[C@@H]1NC(=O)[C@@H]2CCCN2C(=O)[C@H]2CCCN2C(=O)[C@H](Cc2ccccc2)NC(=O)[C@H](Cc2ccccc2)NC(=O)[C@H](CC(N)=O)NC(=O)[C@H](Cc2ccccc2)NC(=O)[C@H](Cc2ccccc2)NC1=O [Peptide 20, c[Pro-Arg-Phe-Phe-Asn-Phe-Phe-DPro]] | – | – | partially stimulated | – |
| CC(C)C[C@@H]1NC(=O)[C@H](CC(N)=O)NC(=O)[C@H](Cc2ccccc2)NC(=O)[C@H](Cc2ccccc2)NC(=O)[C@H](CCCNC(=N)N)NC(=O)[C@@H]2CCCN2C(=O)[C@H]2CCCN2C(=O)[C@H](Cc2ccccc2)NC1=O [Peptide 22, c[Pro-Arg-Phe-Phe-Asn-Leu-Phe-DPro]] | – | – | no activity | – |
